Experimental data published in PubChem BioAssay (NCI).
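Values below derive from 48-hour exposures of cells grown in 96-well plates, with endpoints linearly interpolated between the two concentrations bracketing the appropriate inhibition level. Here, GI50 denotes the concentration required for 50% inhibition of growth. TGI denotes the concentration required for complete inhibition of growth.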

Tests used:
Assay in all cases: NCI-60 cell line screen, 48 h
RXF 393 renal = tested on: RXF 393 renal
OVCAR-8 ovarian = tested on: OVCAR-8 ovarian
OVCAR-3 ovarian = tested on: OVCAR-3 ovarian
SK-MEL-5 melanoma = tested on: SK-MEL-5 melanoma
PC-3 prostate = tested on: PC-3 prostate
MDA-MB-231 breast = tested on: MDA-MB-231 breast
SR leukemia = tested on: SR leukemia
K-562 leukemia = tested on: K-562 leukemia
T-47D breast = tested on: T-47D breast
NCI/ADR-RES ovarian = tested on: NCI/ADR-RES ovarian
DU-145 prostate = tested on: DU-145 prostate
MDA-MB-435 = tested on: MDA-MB-435
KM12 colon = tested on: KM12 colon
UACC-62 melanoma = tested on: UACC-62 melanoma
HT29 colon = tested on: HT29 colon
U251 CNS = tested on: U251 CNS
SK-OV-3 ovarian = tested on: SK-OV-3 ovarian
ACHN renal = tested on: ACHN renal
SF-295 CNS = tested on: SF-295 CNS
IGROV1 ovarian = tested on: IGROV1 ovarian
NCI-H460 lung = tested on: NCI-H460 lung
SK-MEL-2 melanoma = tested on: SK-MEL-2 melanoma
LOX IMVI melanoma = tested on: LOX IMVI melanoma
NCI-H226 lung = tested on: NCI-H226 lung
SW-620 colon = tested on: SW-620 colon
HCT-15 colon = tested on: HCT-15 colon
HOP-92 NSCLC = tested on: HOP-92 NSCLC
786-0 renal = tested on: 786-0 renal
RPMI-8226 leukemia = tested on: RPMI-8226 leukemia
SNB-75 CNS = tested on: SNB-75 CNS
BT-549 breast = tested on: BT-549 breast
A549 NSCLC = tested on: A549 NSCLC
SF-268 CNS = tested on: SF-268 CNS
HOP-62 NSCLC = tested on: HOP-62 NSCLC
OVCAR-4 ovarian = tested on: OVCAR-4 ovarian
UACC-257 melanoma = tested on: UACC-257 melanoma
OVCAR-5 ovarian = tested on: OVCAR-5 ovarian
SK-MEL-28 melanoma = tested on: SK-MEL-28 melanoma
MCF7 breast = tested on: MCF7 breast
CCRF-CEM leukemia = tested on: CCRF-CEM leukemia
HS 578T breast = tested on: HS 578T breast
SNB-19 CNS = tested on: SNB-19 CNS
HL-60(TB) leukemia = tested on: HL-60(TB) leukemia
TK-10 renal = tested on: TK-10 renal
COLO 205 colon = tested on: COLO 205 colon
SN12C renal = tested on: SN12C renal
NCI-H522 lung = tested on: NCI-H522 lung
M14 melanoma = tested on: M14 melanoma
EKVX NSCLC = tested on: EKVX NSCLC
NCI-H23 lung = tested on: NCI-H23 lung
HCT-116 colon = tested on: HCT-116 colon
HCC-2998 colon = tested on: HCC-2998 colon
MOLT-4 leukemia = tested on: MOLT-4 leukemia
A498 renal = tested on: A498 renal
MALME-3M melanoma = tested on: MALME-3M melanoma
UO-31 renal = tested on: UO-31 renal
CAKI-1 renal = tested on: CAKI-1 renal

Compound: CC12OC(CC(O)C1O)n1c3ccccc3c3c4c(c5c6ccccc6n2c5c31)C(=O)N(CCN1CCCC1)C4=O (centres undefined)
- GI50 (RXF 393 renal): 1.23 µM
- TGI (RXF 393 renal): 7.25 µM
- GI50 (OVCAR-8 ovarian): 1.1 µM
- TGI (OVCAR-8 ovarian): 9.12 µM
- GI50 (OVCAR-3 ovarian): 1.77 µM
- TGI (OVCAR-3 ovarian): 8.95 µM
- GI50 (SK-MEL-5 melanoma): 1.22 µM
- TGI (SK-MEL-5 melanoma): 7.12 µM
- GI50 (PC-3 prostate): 1.79 µM
- TGI (PC-3 prostate): 9.13 µM
- GI50 (MDA-MB-231 breast): 3.38 µM
- TGI (MDA-MB-231 breast): 11.2 µM
- GI50 (SR leukemia): 0.149 µM
- TGI (SR leukemia): 6.08 µM
- GI50 (K-562 leukemia): 0.68 µM
- TGI (K-562 leukemia): 19.4 µM
- GI50 (T-47D breast): 0.868 µM
- TGI (T-47D breast): 7.94 µM
- GI50 (NCI/ADR-RES ovarian): 6.31 µM
- TGI (NCI/ADR-RES ovarian): 14.5 µM
- GI50 (DU-145 prostate): 1.06 µM
- TGI (DU-145 prostate): 5.82 µM
- GI50 (MDA-MB-435): 1.7 µM
- TGI (MDA-MB-435): 8.11 µM
- GI50 (KM12 colon): 1.3 µM
- TGI (KM12 colon): 8.68 µM
- GI50 (UACC-62 melanoma): 0.513 µM
- TGI (UACC-62 melanoma): 2.58 µM
- GI50 (HT29 colon): 0.434 µM
- TGI (HT29 colon): 7.07 µM
- GI50 (U251 CNS): 0.488 µM
- TGI (U251 CNS): 6.51 µM
- GI50 (SK-OV-3 ovarian): 1.57 µM
- TGI (SK-OV-3 ovarian): 6.99 µM
- GI50 (ACHN renal): 0.336 µM
- TGI (ACHN renal): 2.34 µM
- GI50 (SF-295 CNS): 0.291 µM
- TGI (SF-295 CNS): 5.96 µM
- GI50 (IGROV1 ovarian): 0.951 µM
- TGI (IGROV1 ovarian): 10.8 µM
- GI50 (NCI-H460 lung): 0.161 µM
- TGI (NCI-H460 lung): 1.06 µM
- GI50 (SK-MEL-2 melanoma): 5.16 µM
- TGI (SK-MEL-2 melanoma): 12.9 µM
- GI50 (LOX IMVI melanoma): 0.308 µM
- TGI (LOX IMVI melanoma): 1.45 µM
- GI50 (NCI-H226 lung): 1.42 µM
- TGI (NCI-H226 lung): 11.4 µM
- GI50 (SW-620 colon): 0.31 µM
- TGI (SW-620 colon): 7.22 µM
- GI50 (HCT-15 colon): 1 µM
- TGI (HCT-15 colon): 6.77 µM
- GI50 (HOP-92 NSCLC): 3.85 µM
- TGI (HOP-92 NSCLC): 10.3 µM
- GI50 (786-0 renal): 1.29 µM
- TGI (786-0 renal): 6.36 µM
- GI50 (RPMI-8226 leukemia): 1.32 µM
- TGI (RPMI-8226 leukemia): 4.43 µM
- GI50 (SNB-75 CNS): 0.879 µM
- TGI (SNB-75 CNS): 6.71 µM
- GI50 (BT-549 breast): 3.85 µM
- TGI (BT-549 breast): 11.5 µM
- GI50 (A549 NSCLC): 0.282 µM
- TGI (A549 NSCLC): 6.17 µM
- GI50 (SF-268 CNS): 0.789 µM
- TGI (SF-268 CNS): 8.47 µM
- GI50 (HOP-62 NSCLC): 0.424 µM
- TGI (HOP-62 NSCLC): 5.71 µM
- GI50 (OVCAR-4 ovarian): 1.88 µM
- TGI (OVCAR-4 ovarian): 12.3 µM
- GI50 (UACC-257 melanoma): 3.54 µM
- TGI (UACC-257 melanoma): 11.8 µM
- GI50 (OVCAR-5 ovarian): 2.25 µM
- TGI (OVCAR-5 ovarian): 14.9 µM
- GI50 (SK-MEL-28 melanoma): 2.24 µM
- TGI (SK-MEL-28 melanoma): 9.7 µM
- GI50 (MCF7 breast): 0.199 µM
- TGI (MCF7 breast): 5.88 µM
- GI50 (CCRF-CEM leukemia): 0.936 µM
- TGI (CCRF-CEM leukemia): 10.7 µM
- GI50 (HS 578T breast): 3.05 µM
- TGI (HS 578T breast): 13.8 µM
- GI50 (SNB-19 CNS): 1.25 µM
- TGI (SNB-19 CNS): 9.29 µM
- GI50 (HL-60(TB) leukemia): 0.562 µM
- TGI (HL-60(TB) leukemia): 8.7 µM
- GI50 (TK-10 renal): 1.21 µM
- TGI (TK-10 renal): 10.4 µM
- GI50 (COLO 205 colon): 0.377 µM
- TGI (COLO 205 colon): 6.16 µM
- GI50 (SN12C renal): 0.577 µM
- TGI (SN12C renal): 6.64 µM
- GI50 (NCI-H522 lung): 0.606 µM
- TGI (NCI-H522 lung): 5.4 µM
- GI50 (M14 melanoma): 1.23 µM
- TGI (M14 melanoma): 7.64 µM
- GI50 (EKVX NSCLC): 1.67 µM
- TGI (EKVX NSCLC): 9.64 µM
- GI50 (NCI-H23 lung): 1.24 µM
- TGI (NCI-H23 lung): 7.95 µM
- GI50 (HCT-116 colon): 0.321 µM
- TGI (HCT-116 colon): 6.35 µM
- GI50 (HCC-2998 colon): 3.96 µM
- TGI (HCC-2998 colon): 10.8 µM
- GI50 (MOLT-4 leukemia): 0.197 µM
- TGI (MOLT-4 leukemia): 16.5 µM
- GI50 (A498 renal): 1.5 µM
- TGI (A498 renal): 7.5 µM
- GI50 (MALME-3M melanoma): 1.3 µM
- TGI (MALME-3M melanoma): 8.41 µM
- GI50 (UO-31 renal): 1.5 µM
- TGI (UO-31 renal): 9.95 µM
- GI50 (CAKI-1 renal): 1.41 µM
- TGI (CAKI-1 renal): 9.01 µM
